Results reported in ChEMBL document CHEMBL4382202, “1-(2-Hydroxybenzoyl)-thiosemicarbazides are promising antimicrobial agents targeting d-alanine-d-alanine ligase in bacterio” (Eur J Med Chem, 2018).
Active and inactive are the calls of the source. No cut-off for these calls is given here.

Key:
Staphylococcus aureus [1] = experiment: Bactericidal activity against Staphylococcus aureus ATCC 25923 assessed as reduction of bacterial load at 2 to 5 times MIC after 24 hrs by time kill assay; assay type: functional, organism-based
[2] = target: Acetylcholinesterase (Homo sapiens) (UniProt P22303); experiment: Inhibition of human recombinant acetylcholinesterase at 10 uM using acetylthiocholine as substrate after 30 mins by spectrophotometric analysis relative to control
[3] = target: T1, D-alanine--D-alanine ligase (Enterococcus faecalis (strain ATCC 700802 / V583)) (UniProt Q47758); experiment: Inhibition of Enterococcus faecalis JH2-2 C-terminal 6His-tagged DdlB expressed in Escherichia coli LMG194 assessed as Vmax/Km of ATP at 1 uM by Biomol Green reagent assay (reference value: 0.3 /min)
T1 sequence (whole entry): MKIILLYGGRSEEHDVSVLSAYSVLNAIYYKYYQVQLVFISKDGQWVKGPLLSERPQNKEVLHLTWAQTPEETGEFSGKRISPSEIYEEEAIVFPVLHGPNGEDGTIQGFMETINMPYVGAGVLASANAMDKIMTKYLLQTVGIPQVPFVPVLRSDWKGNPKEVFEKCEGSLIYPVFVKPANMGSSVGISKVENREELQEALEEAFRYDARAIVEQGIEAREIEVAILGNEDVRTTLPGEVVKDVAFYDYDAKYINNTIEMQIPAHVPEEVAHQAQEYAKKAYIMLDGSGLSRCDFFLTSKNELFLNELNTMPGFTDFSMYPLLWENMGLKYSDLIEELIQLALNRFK

[4] = target: L-lactate dehydrogenase A chain (Homo sapiens) (UniProt P00338); experiment: Inhibition of human recombinant full-length LDHA at 10 uM using sodium pyruvate as substrate after 60 mins by resazurin dye-based assay relative to control
[5] = target: Arginase-1 (Homo sapiens) (UniProt P05089); experiment: Inhibition of human recombinant Arg1 at 10 uM using L-arginine as substrate after 5 mins in presence of [guanidino-14C]-L-arginine by liquid scintillation counting analysis relative to control
[6] = target: T1, D-alanine--D-alanine ligase (Enterococcus faecalis (strain ATCC 700802 / V583)); experiment: Inhibition of Enterococcus faecalis JH2-2 C-terminal 6His-tagged DdlB expressed in Escherichia coli LMG194 assessed as Vmax/Km of D-Ala at 10 uM by Biomol Green reagent assay (reference value: 11.02 /min)
[7] = target: T1, D-alanine--D-alanine ligase (Enterococcus faecalis (strain ATCC 700802 / V583)); experiment: Inhibition of Enterococcus faecalis JH2-2 C-terminal 6His-tagged DdlB expressed in Escherichia coli LMG194 assessed as Vmax/Km of D-Ala at 1 uM by Biomol Green reagent assay (reference value: 11.02 /min)
[8] = target: T1, D-alanine--D-alanine ligase (Enterococcus faecalis (strain ATCC 700802 / V583)); experiment: Inhibition of Enterococcus faecalis JH2-2 C-terminal 6His-tagged DdlB expressed in Escherichia coli LMG194 at 10 uM preincubated for 30 mins followed by substrate addition and measured after 20 mins by Biomol Green reagent assay relative to control
[9] = target: Prostaglandin G/H synthase 1 (Homo sapiens) (UniProt P23219); experiment: Inhibition of human recombinant COX1 at 10 uM using arachidonic acid as substrate after 3 mins by fluorimetric analysis relative to control
[10] = target: Topoisomerase IV (Staphylococcus aureus) (UniProt P0C1U9+P0C1S7); experiment: Inhibition of Staphylococcus aureus DNA topoisomerase 4 at 10 uM using interlinked kDNA as substrate after 1 hr by ethidium bromide staining-based agarose gel electrophoresis relative to control; assay type: protein-complex assay
[11] = target: Carbonic anhydrase 2 (Homo sapiens) (UniProt P00918); experiment: Inhibition of human carbonic anhydrase 2 at 10 uM using 4-nitrophenyl acetate as substrate after 20 mins by spectrophotometric analysis relative to control
[12] = target: DNA gyrase (Staphylococcus aureus) (UniProt P0A0K8+P20831); experiment: Inhibition of Staphylococcus aureus DNA gyrase at 10 uM using supercoiled pBR322 DNA as substrate after 1 hr by ethidium bromide staining-based agarose gel electrophoresis relative to control; assay type: protein-complex assay
[13] = target: Muscarinic acetylcholine receptor M1 (Homo sapiens) (UniProt P11229); experiment: Displacement of […] from human recombinant M1 receptor at 10 uM after 60 mins by scintillation counting analysis relative to control
Escherichia coli [14] = experiment: Inhibition of Escherichia coli DNA topoisomerase 4 at 10 uM using interlinked kDNA as substrate after 1 hr by ethidium bromide staining-based agarose gel electrophoresis relative to control
[15] = target: Monoglyceride lipase (Homo sapiens) (UniProt Q99685); experiment: Inhibition of human MAGL at 10 uM relative to control
Staphylococcus aureus [16] = experiment: Inhibition of Ddl in Staphylococcus aureus ATCC 25923 assessed as increase in [D-Ala]/[D-Ala-D-Ala] ratio at 2 times MIC after 30 mins by LC-MS/MS analysis
Pseudomonas aeruginosa = experiment: Antibacterial activity against Pseudomonas aeruginosa PAO1 after 18 to 24 hrs by microdilution assay; assay type: functional, organism-based
Escherichia coli [17] = experiment: Antibacterial activity against Escherichia coli ATCC 25922 after 18 to 24 hrs by microdilution assay; assay type: functional, organism-based
Klebsiella pneumoniae = experiment: Antibacterial activity against Klebsiella pneumoniae ATCC 700603 after 18 to 24 hrs by microdilution assay; assay type: functional, organism-based
[18] = target: Prothrombin (Homo sapiens) (UniProt P00734); experiment: Inhibition of human thrombin at 10 uM using Z-GPR-AMC as substrate after 30 mins by fluorimetric analysis relative to control
[19] = target: Peroxisome proliferator-activated receptor alpha (Homo sapiens) (UniProt Q07869); experiment: Displacement of [3H]WY 14643 from human recombinant PPARalpha receptor at 10 uM at 10 uM after 120 mins by scintillation counting analysis relative to control
[20] = target: T1, D-alanine--D-alanine ligase (Enterococcus faecalis (strain ATCC 700802 / V583)); experiment: Reversible inhibition of Enterococcus faecalis JH2-2 C-terminal 6His-tagged DdlB expressed in Escherichia coli LMG194 at 3 uM preincubated for 30 mins followed by 10 times dilution followed by 20 mins incubation with substrate by Biomol Green reagent assay
[21] = target: Indoleamine 2,3-dioxygenase 1 (Homo sapiens) (UniProt P14902); experiment: Inhibition of human IDO at 10 uM using L-tryptophan as substrate after 30 mins by Ehrlich's reagent based assay relative to control
[22] = target: Cannabinoid receptor 1 (Homo sapiens) (UniProt P21554); experiment: Displacement of [3H]CP 55940 from human recombinant CB1 receptor at 10 uM after 120 mins by scintillation counting analysis relative to control
[23] = target: D-3-phosphoglycerate dehydrogenase (Homo sapiens) (UniProt O43175); experiment: Inhibition of human recombinant C-terminal His-tagged PHGDH (1 to 533 residues) expressed in Escherichia coli at 10 uM using 3-phosphoglycerate as substrate relative to control
[24] = target: DNA gyrase (Escherichia coli) (UniProt P0AES6+P0AES4); experiment: Inhibition of Escherichia coli DNA gyrase at 10 uM using supercoiled pBR322 DNA as substrate after 1 hr by ethidium bromide staining-based agarose gel electrophoresis relative to control; assay type: protein-complex assay
Bacillus cereus = experiment: Inhibition of Bacillus cereus beta-lactamase at 10 uM using nitrocefin as substrate preincubated for 15 mins followed by substrate addition and measured after 60 mins by spectrophotometric analysis relative to control

Sequence of Indoleamine 2,3-dioxygenase 1 (Homo sapiens) (P14902 whole entry, looked up): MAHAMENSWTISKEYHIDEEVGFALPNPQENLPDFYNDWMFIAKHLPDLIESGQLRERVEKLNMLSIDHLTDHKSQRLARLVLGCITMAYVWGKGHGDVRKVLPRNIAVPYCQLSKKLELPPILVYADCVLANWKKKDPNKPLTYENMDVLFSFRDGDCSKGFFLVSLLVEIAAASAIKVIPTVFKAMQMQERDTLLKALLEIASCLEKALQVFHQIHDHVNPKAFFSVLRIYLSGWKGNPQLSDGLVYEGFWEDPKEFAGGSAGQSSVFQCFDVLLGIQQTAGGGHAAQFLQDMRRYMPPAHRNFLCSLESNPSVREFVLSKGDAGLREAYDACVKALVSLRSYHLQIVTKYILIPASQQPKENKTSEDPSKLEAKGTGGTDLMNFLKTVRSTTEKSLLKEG
Sequence of Cannabinoid receptor 1 (Homo sapiens) (P21554 whole entry, the tested form may be a part): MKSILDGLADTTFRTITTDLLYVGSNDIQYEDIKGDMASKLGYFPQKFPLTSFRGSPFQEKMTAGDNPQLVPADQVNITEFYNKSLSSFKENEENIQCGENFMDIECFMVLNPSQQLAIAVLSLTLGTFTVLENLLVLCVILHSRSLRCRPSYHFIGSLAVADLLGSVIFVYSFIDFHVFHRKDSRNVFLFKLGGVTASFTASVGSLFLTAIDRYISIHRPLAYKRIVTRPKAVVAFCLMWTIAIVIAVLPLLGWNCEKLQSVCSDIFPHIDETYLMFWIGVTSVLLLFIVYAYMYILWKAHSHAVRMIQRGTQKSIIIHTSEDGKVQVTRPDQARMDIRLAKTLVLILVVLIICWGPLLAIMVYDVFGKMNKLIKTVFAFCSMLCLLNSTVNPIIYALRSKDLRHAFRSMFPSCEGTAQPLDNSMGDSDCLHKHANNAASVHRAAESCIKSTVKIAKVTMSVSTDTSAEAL
Sequence of Muscarinic acetylcholine receptor M1 (Homo sapiens) (P11229 whole entry): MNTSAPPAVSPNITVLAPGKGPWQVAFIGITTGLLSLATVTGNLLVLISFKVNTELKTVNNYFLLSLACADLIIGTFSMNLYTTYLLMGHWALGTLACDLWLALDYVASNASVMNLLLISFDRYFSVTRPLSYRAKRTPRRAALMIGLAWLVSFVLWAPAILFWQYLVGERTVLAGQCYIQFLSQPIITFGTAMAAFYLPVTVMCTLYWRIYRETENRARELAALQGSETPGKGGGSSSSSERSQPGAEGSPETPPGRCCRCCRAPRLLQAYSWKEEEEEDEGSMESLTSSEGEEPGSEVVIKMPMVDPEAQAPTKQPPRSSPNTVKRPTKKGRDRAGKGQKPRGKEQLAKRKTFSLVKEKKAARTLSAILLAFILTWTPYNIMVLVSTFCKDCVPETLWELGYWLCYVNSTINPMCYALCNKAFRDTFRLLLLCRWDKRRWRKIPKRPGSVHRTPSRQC
Sequence of Monoglyceride lipase (Homo sapiens) (Q99685 whole entry): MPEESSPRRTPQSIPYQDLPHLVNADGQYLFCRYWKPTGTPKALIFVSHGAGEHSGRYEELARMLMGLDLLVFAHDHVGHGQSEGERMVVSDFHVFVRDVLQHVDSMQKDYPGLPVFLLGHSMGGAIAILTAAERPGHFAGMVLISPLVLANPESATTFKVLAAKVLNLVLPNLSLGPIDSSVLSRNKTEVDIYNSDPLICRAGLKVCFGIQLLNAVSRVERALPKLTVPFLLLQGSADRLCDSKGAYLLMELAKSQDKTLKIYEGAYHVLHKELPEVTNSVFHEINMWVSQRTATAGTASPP
Sequence of Acetylcholinesterase (Homo sapiens) (P22303 whole entry): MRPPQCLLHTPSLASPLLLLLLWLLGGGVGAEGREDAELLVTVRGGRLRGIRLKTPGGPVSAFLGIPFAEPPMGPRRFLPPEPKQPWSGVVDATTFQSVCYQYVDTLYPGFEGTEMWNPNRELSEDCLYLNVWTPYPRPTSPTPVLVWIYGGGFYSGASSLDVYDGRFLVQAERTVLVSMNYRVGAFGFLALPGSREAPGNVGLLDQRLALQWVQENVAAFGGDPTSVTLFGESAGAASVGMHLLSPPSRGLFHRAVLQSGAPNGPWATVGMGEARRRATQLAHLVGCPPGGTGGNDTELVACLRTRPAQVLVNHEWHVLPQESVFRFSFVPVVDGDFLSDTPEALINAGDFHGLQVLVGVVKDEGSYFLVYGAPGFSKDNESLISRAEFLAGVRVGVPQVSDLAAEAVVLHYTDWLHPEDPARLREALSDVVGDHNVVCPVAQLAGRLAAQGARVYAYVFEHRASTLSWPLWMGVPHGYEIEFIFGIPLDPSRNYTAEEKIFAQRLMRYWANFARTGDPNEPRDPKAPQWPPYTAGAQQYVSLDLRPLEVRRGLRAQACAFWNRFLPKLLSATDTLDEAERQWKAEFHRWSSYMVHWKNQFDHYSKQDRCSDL
Sequence of D-3-phosphoglycerate dehydrogenase (Homo sapiens) (O43175 whole entry, the tested form may be a part): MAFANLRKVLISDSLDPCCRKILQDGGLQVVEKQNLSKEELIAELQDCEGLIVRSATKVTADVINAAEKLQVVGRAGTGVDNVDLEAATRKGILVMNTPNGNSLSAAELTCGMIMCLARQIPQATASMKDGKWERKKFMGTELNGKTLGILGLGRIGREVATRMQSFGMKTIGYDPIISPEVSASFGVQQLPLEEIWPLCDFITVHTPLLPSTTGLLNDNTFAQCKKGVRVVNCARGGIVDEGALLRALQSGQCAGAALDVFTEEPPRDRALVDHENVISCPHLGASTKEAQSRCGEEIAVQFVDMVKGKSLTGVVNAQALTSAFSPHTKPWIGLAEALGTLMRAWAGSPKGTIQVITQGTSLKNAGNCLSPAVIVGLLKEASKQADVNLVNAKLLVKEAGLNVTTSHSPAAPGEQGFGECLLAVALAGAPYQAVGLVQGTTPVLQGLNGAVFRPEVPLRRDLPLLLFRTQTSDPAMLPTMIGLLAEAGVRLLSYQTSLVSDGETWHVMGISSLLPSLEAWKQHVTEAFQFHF
Sequence of Arginase-1 (Homo sapiens) (P05089 whole entry): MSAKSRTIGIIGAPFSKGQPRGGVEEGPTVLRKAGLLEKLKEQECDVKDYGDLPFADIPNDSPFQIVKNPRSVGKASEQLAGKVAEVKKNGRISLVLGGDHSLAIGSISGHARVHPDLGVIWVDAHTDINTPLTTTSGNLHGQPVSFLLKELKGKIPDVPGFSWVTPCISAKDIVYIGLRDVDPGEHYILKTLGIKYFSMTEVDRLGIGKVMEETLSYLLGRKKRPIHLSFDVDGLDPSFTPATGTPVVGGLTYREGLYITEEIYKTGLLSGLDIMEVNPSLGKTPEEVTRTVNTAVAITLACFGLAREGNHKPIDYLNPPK
Sequence of DNA gyrase (Staphylococcus aureus) (P0A0K8 2-644 limits assumed): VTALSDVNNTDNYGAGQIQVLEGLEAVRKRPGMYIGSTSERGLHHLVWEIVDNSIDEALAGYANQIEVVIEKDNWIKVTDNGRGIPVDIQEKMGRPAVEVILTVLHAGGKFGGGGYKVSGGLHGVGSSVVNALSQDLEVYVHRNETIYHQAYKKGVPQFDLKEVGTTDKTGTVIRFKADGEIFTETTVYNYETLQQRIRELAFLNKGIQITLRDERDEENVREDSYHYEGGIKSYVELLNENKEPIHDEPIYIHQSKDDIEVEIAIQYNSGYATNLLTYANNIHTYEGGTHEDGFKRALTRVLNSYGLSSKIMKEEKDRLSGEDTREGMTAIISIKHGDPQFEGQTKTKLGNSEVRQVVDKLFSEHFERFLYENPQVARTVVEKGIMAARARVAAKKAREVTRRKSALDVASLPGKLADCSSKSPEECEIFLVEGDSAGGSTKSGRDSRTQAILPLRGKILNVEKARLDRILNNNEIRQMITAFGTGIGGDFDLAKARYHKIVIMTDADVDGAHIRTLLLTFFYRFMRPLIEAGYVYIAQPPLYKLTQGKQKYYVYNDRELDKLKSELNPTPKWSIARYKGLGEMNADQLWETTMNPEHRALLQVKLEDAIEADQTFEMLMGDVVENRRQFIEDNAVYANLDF
Sequence of DNA gyrase (Staphylococcus aureus) (P20831 whole entry partner): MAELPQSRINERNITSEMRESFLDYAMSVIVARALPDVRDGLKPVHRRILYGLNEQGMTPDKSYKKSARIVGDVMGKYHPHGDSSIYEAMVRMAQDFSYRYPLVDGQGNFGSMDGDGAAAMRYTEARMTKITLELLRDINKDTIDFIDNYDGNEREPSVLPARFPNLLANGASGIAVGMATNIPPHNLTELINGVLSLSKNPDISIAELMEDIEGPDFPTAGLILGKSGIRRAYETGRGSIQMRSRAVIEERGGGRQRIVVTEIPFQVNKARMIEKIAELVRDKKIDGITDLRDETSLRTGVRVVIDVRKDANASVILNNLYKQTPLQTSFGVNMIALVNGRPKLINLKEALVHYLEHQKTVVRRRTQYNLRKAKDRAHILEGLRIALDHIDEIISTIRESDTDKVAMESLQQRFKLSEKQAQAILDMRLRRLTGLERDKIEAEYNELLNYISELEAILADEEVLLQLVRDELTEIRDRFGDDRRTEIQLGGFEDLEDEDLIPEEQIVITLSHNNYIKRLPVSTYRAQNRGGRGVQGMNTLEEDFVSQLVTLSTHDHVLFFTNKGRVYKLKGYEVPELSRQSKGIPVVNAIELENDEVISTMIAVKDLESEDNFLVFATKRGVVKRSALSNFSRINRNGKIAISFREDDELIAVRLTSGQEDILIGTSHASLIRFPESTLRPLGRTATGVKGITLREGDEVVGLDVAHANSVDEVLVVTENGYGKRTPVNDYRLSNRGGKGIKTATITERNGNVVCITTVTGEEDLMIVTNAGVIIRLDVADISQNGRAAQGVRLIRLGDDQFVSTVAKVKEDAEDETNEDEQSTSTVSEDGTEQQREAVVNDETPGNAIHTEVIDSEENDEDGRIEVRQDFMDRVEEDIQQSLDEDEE

For `O=C(NNC(=S)Nc1ccc(Cl)c(Cl)c1)c1ccccc1O`, the Activity (Staphylococcus aureus [1]) was “Active”, the inhibition [2] was under 30% and the Vmax/Km [3] was 0.33 min⁻¹. For the same molecule, the inhibition [4] was under 30%, the inhibition [5] was under 30% and the Vmax/Km [6] was 4.69 min⁻¹. For the same molecule, the Vmax/Km [7] was 6.93 min⁻¹, the inhibition [8] was over 30% and the inhibition [9] was under 30%. For the same molecule, the inhibition [10] was under 30%, the inhibition [11] was under 30% and the inhibition [12] was under 30%. The inhibition [13] was under 30%, the inhibition (Escherichia coli [14]) was under 30% and the inhibition [15] was under 30%. The inhibition (Staphylococcus aureus [16]) was “Active”, the MIC (Pseudomonas aeruginosa) was “inactive” and the MIC (Escherichia coli [17]) was “inactive”. The MIC (Klebsiella pneumoniae) was “inactive”, the inhibition [18] was under 30% and the inhibition [19] was under 30%. For the same molecule, the inhibition [20] was “Active”, the inhibition [21] was under 30% and the inhibition [22] was under 30%. It also gave an inhibition [23] of under 30%, an inhibition [24] of under 30% and an inhibition (Bacillus cereus) of under 30%.
